Values quoted from earlier work, collected in US8168224B2, “Sodium alginate microsphere vascular embolus containing water-soluble drug and preparation and application thereof” (Beijing Shengyiyao Science & Technology Development Co., …, priority 2007, dated 2012).

Key:
[1] = system: human liver cancer cell strain HepG2; details: combination with TNF
[2] = system: human ovary cancer strain 3AO; details: 3AO cells in vitro, compared with cisplatin (cDDP)
primary liver cancer = details: 20 mg/d for 5 consecutive days
[3] = system: human ovary cancer cell strain SKOV3; details: As2O3 within normal clinical dosage range; radiation in routine graded dosages
K562 and K562/ADM = details: dosage-time effect
acute non-APL (ANPL) = details: versus Ara-C, Homoharringtonine, VCR and DNR
[4] = system: rabbit Vx2 hepatic transplantation carcinoma; details: hepatic artery catheter perfusion; dose dependent

In the case of Arsenic trioxide [As2O3], the “combination effect on inducing apoptosis” value [1] is listed as “synergistic”, the “growth inhibition, apoptosis induction and S phase block compared with cDDP” value [2] is listed as “more effective in inhibiting growth, inducing apoptosis and blocking S phase of 3AO” and the side effects (primary liver cancer; 4 courses, local pump administration) is listed as “No explicit side effects”. For the same substance, the “PR (lesions shrank by 50% plus, no new lesions)” value (primary liver cancer; 17 patients unsuitable for surgery, after 4 therapeutic courses) was 35.2%, the overall effectiveness rate (primary liver cancer; 17 patients, after 4 therapeutic courses) was 41.1% and the radiation enhancement [3] was “enhance effect of the radiation therapy”. For the same substance, the “expression of Bcl-2 protein” value (K562 and K562/ADM) was “inhibit expression of Bcl-2 protein of K562 and K562/ADM”, the cross drug resistance (acute non-APL (ANPL)) was “free from cross drug resistance with Ara-C, Homoharringtonine and VCR, but partly has cross drug resistance with DNR” and the “inhibition of rabbit Vx2 hepatic transplantation carcinoma” value [4] was “significantly effective in treating tumors”. For the same substance, the angiogenesis (angiogenesis in CAM) was “inhibit angiogenesis” and the “growth of HUVECs” value (HUVECs) was “inhibit growth of HUVECs”.
